Laboratory results as given in US12458587B2, “Hypoallergenic composition for skin regeneration or skin soothing, containing culture product or extract of Aureobasidium pullulans strain” (AMOREPACIFIC CORPORATION, priority 2018, dated 2025).

Experiments:
keratinocytes (HaCaT) = test: Scratch wound healing on keratinocyte monolayer (skin-regenerating effect); assay type: cell-based, human; details: relative to scratched area as 100%, 12 ppm (positive control 10% FBS), n=4
Protocol: A linear scratch wound was made on a monolayer of keratinocytes (HaCaT). The HaCaT cells were cultured using Dulbecco's modified Eagle's medium (DMEM, Lonza, USA) containing 10% fetal bovine serum (FBS, GIBCO, USA) in a 5% CO2 incubator at 37° C. Immediately after the application of a scratch, the medium was replaced with a fresh medium containing the sample to be tested and the effect of the test sample on skin regeneration was investigated. The regeneration of the cells on the scratched area was imaged with a time-lapse microscope for 36 hours with 30-minute intervals and wound healing area (%) was compared relative the scratched area (as 100%) (n=4 per group).

rabbit eye = details: 5%; cited from earlier work

## Madecassoside
Keratinocytes (HaCaT)
  Wound healing area (%) 12 hours later: 33.56%
  Wound healing area (%) 24 hours later: 54.56%
  Wound healing area (%) 36 hours later: 62.48%
  Wound healing area (%) Immediately after scratching: 0%

## sodium magnesium lauryl-myristyl-6-ethoxy-sulfate [Texapon Asv®]
Rabbit eye
  eye irritation in the Draize rabbit eye test: moderate irritation
